Results on ten molecules are retold here after US6197536A, “Methodology to produce, and purify and assay polypeptides with the proteolytic activity of the HCV NS3 protease” (priority 1995, dated 2001).

The target in one data set is T1, HCV protease (Hepatitis C virus genotype 1b, UniProt P26663).
T1 construct: added initiator Met (ATG start codon) (N); made in house; host or cells: E. coli BL21(DE3)
Kind of data set: Effect of chymostatin on HCV protease activity. Type of data set: biochemical. The conditions noted are these: 100 μg/ml used in homogenisation. How it is done: 1. Homogenisation in the presence of 100 μg/ml of the chymostatin protease inhibitor. […] In this way it was possible to purify a single molecular species with more than 95% of form 2.

For the next data set, the target named is T2, NS3 protease (Hepatitis C virus genotype 1b, UniProt P26663).
T2 construct: The protein fragments contain variants of the protease domain of the HCV NS3 protein; added initiator Met (ATG start codon) (N); made in house
T2 sequence (P26663 1027-1208): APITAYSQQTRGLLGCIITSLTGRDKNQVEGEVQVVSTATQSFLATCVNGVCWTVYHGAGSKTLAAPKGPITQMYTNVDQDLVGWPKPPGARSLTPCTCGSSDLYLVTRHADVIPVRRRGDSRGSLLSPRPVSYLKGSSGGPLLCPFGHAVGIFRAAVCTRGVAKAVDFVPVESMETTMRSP
Type of data set: biochemical, hepatitis C virus (HCV). From the text: Using the HPLC-based assay, the following kinetic parameters were obtained for the radioactive depsipeptide substrate S1 (SEQ ID NO:44):
Synthesis of the radioactive depsipeptide substrates allows set-up of a high-throughput assay for determination of NS3 protease activity as schematically illustrated in FIG. 11. The principle is the following: both the intact substrate and the N-terminal fragment that originates from enzyme cleavage (Ac-Asp-Glu-Met-Glu-Glu-Abu-OH) (SEQ ID NO:49) are extremely acid, whereas the C-terminal fragment [HO-CH(CH3)CO-Ser-His-Leu-Pro-Tyr-Lys(N^ε -[^3 H]-CH3 CO)-NH2 ] (SEQ ID NO:50) is, according to pH, neutral or basic. It is therefore possible to capture the two acidic species on an anionic exchange resin, leaving the C-terminal fragment in solution. If the C-terminal fragment contains a radioactive marker (in this case the tritiated acetate covalently bonded to the ε-amino group of the C-terminal lysine), the resin will be able to discriminate processed substrate from non-processed substrate, thus making it possible to quantify proteolytic activity by measuring the amount of radioactivity remaining in solution after incubation with the enzyme and treatment with the ion exchanger. […]
Purification to >98% homogeneity was achieved through preparative HPLC on a Nucleosyl C-18 column (250×21 mm, 7 μm) using as eluents (A) 50 mM ammonium acetate, pH 6 and (B) acetonitrile. […] The kinetic parameters for this substrate, evaluated through the HPLC-based assay (see FIG. 14A), were the following:
The buffer used for the assay is the following: 33 mM DTT, 50 mM Tris, pH 7, 50% glycerol, 2% CHAPS. […] The assay can be run in a cuvette or in a (96-well) microtitre plate, monitoring the fluorescence as a function of time (Excitation wavelength […], Emission wavelength […]). The increase in fluorescence upon substrate cleavage is 13-fold. […]

Data set [1] addresses T3, HCV NS3 protease (Hepatitis C virus genotype 1b, UniProt P26663).
T3 construct: The protein fragments contain variants of the protease domain of the HCV NS3 protein; added initiator Met (ATG start codon) (N); made in house
Kind of data set: Competitive inhibition of NS3 protease by decapeptides P6-P4' modified at position P1. Type of data set: biochemical. How it is done:
(§1) Cleavage was detected by separating the substrate from the hydrolysis products by reverse-phase HPLC. For this purpose the mixture containing the buffer and the peptide incubated with the protease was injected into a reverse-phase Lichrospher RP-18 column (Merck) and eluted with an acetonitrile gradient containing 0.10% trifluoracetic acid. The cleavage products were identified by co-injection of appropriate standards, and by mass spectrometry. For these experiments, proteins produced by one of the methods described in examples 1 and 2 were used.
(§2) Dependence of the activity on temperature was analysed by means of an Arrhenius plot in which the logarithm of the kinetic constant Kcat is given as an inverse function of temperature.

In the next data set the test system is NS3 protease + Pep4A. Description: Automatic assay using a radioactive amide substrate with anionic exchanger capture. Type of data set: biochemical, hepatitis C virus (HCV). The conditions noted are these: 3 hours at 23° C., 40 μM unlabeled peptide, 200 nM protease, 1 μM Pep4A.
Chain of NS3 protease + Pep4A (P26663 1039-1206, other chains not shown): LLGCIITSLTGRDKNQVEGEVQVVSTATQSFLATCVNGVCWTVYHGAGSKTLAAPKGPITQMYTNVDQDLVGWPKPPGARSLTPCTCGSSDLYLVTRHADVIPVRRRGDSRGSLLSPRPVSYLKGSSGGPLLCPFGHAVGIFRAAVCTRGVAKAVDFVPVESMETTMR
Data set [2] relates to HCV NS3 protease. The conditions noted are these: Example 4 amide substrate. How it is done:
as §1, §2

The test system of data set [3] is CSCC[C@H](NC(=O)[C@H](CCC(=O)O)NC(=O)[C@H](CC(=O)O)NC(C)=O)C(=O)N[C@@H](CCC(=O)O)C(=O)N[C@@H](CCC(=O)O)C(=O)N[C@@H](CS)C(=O)N[C@@H](C)C(=O)N[C@@H](CO)C(=O)N[C@@H](Cc1c[nH]cn1)C(=O)N[C@@H](CC(C)C)C(=O)O. Description: HPLC assay of peptide substrate cleavage by purified NS3 protease in the presence of Pep4A. Type of data set: biochemical, hepatitis C virus (HCV). The conditions noted are these: other: Table 2, stoichiometric concentration, pH 7.5, 25.0 °C. An excerpt: (§3) As mentioned above, the protein NS4A is a cofactor of HCV protease. N and C-terminal deletion experiments have defined the peptide Pep4A with the sequence indicated in SEQ ID NO:6, as the minimum domain still capable of inducing optimal activation. In transfection or in vitro translation experiments the addition of polypeptides containing the minimum NS4A sequence is essential to give effective cleavage. […] The kinetic characteristics of this activation are described below. Using a titration experiment a stoichiometry of 1:1 was determined for this interaction at a concentration of […] of protease, indicating a Kd<300 nM.
(§4) These kinetics were obtained both in the absence and in the presence of stechiometric concentrations of Pep4A. […] When the Km values for the single substrates are compared it becomes evident that the presence of two negative charges in P5 and in P6 determined the bonding effectiveness of a peptide substrate.

In data set [4] the test system is CC(=O)N[C@@H](CC(=O)O)C(=O)N[C@@H](CS)C(=O)N[C@@H](CO)C(=O)N[C@H](C(=O)N1CCC[C@H]1C(=O)N[C@@H](CS)C(=O)N[C@@H](CO)C(=O)NCC(=O)N[C@@H](CO)C(=O)N[C@@H](Cc1c[nH]c2ccccc12)C(=O)O)[C@@H](C)O. Described as above. The data set is classed as biochemical, hepatitis C virus (HCV). As to conditions: other: Table 2, stoichiometric concentration, pH 7.5, 25.0 °C.
Excerpt: as §3, §4

Data set [5] deals with CSCC[C@H](NC(=O)[C@H](CO)NC(=O)[C@H](CS)NC(=O)[C@H](CS)NC(=O)[C@@H](NC(=O)[C@@H](NC(=O)[C@H](CC(=O)O)NC(=O)[C@H](CCC(=O)O)NC(C)=O)C(C)C)C(C)C)C(=O)N[C@@H](CO)C(=O)N[C@@H](Cc1ccc(O)cc1)C(=O)O. The data set is described as above. The conditions noted are these: other: Table 2, stoichiometric concentration, pH 7.5, 25.0 °C. The data set is classed as biochemical, hepatitis C virus (HCV).
Excerpt: as §3, §4

The mark [6] stands for this setting: radioactive depsipeptide substrates, HPLC-based assay.

Non-standard residues stand in square brackets, D forms with d. Residues, ends and D or L forms follow the SMILES beside them. No end group written: not given here. *: point of attachment. Dabcyl = CN(C)c1ccc(N=Nc2ccc(C(=O)*)cc2)cc1; EDANS = O=S(=O)(O)c1cccc2c(NCCN*)cccc12; AllylGly = C=CC[C@H](N)C(=O)O; Abu = CC[C@H](N)C(=O)O; Lac = C[C@H](O)C(=O)O

T3 sequence (P26663 1027-1208): as the sequence (P26663 1027-1208) above
Chain of HCV NS3 protease (P26663 1039-1206 limits assumed): as the sequence (P26663 1039-1206, other chains not shown) above
T1 sequence (P26663 1027-1206): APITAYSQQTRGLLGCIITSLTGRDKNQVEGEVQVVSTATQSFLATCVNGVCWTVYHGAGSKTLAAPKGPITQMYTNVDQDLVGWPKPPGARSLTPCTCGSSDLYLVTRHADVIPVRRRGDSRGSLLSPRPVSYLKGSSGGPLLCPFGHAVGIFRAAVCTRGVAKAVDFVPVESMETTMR
Description for NS3 protease + Pep4A: 400,000 cpm of the labelled peptide with a specific activity of 2-10 Ci/mmol. were incubated for 3 hours at 23° C. together with 40 μM (Km /2) of unlabeled peptide in the presence of 200 nM protease and 1 μM of Pep4A in 50 mM Tris pH 7.5, 50% glycerol, 3% CHAPS, 10 mM DTT. […] The fraction coming out of the exchanger is filtered, allowed to sediment or spun. The radioactivity is measured on the clear fraction, the amount of which is exclusively related to the right fragment (C-terminal), given that the amide substrate and the left hand fragment remain bound to the anionic exchanger. The addition of inhibitors causes a decrease in the release rate of the labelled cleaved fragment.

For `CC(C)C[C@H](NC(=O)[C@@H](NC(=O)N[C@@H](Cc1ccccc1)C(=O)O)[C@@H]1CCN=C(N)N1)C(=O)N[C@H](C=O)Cc1ccccc1` [chymostatin], the “inhibition of HCV protease activity” value against HCV protease is listed as “does not inhibit”.
Turning to `CC[C@H](NC(=O)[C@H](CCC(=O)O)NC(=O)[C@H](CCC(=O)O)NC(=O)[C@H](CC(=O)NCCNc1cccc2c(S(=O)(=O)O)cccc12)NC(=O)[C@H](CCC(=O)O)NC(=O)[C@H](CC(=O)O)NC(C)=O)C(=O)O[C@@H](C)C(=O)N[C@@H](CO)C(=O)N[C@@H](CCCCNC(=O)c1ccc(N=Nc2ccc(N(C)C)cc2)cc1)C(N)=O` [S3, Ac-Asp-Glu-Asp-(EDANS)-Glu-Glu-Abu-.psi.[COO)-Ala-Ser-Lys-(DABCYL)NH2] (Ac-DED(EDANS)EE[Abu][Lac]SK(Dabcyl)-NH2), the “kcat /Km” value at NS3 protease (fluorogenic depsipeptide, same buffer) is 5342 M⁻¹ s⁻¹.
As usually defined, the Ki is the equilibrium dissociation constant of an inhibitor or competing ligand from its target. A high value points to a looser hold on the target. In turn, Ac-DEMEEAASHL [Ala] registered an inhibitory constant (Ki) at HCV NS3 protease [1] of 173 µM.
A word on the Km: it is the substrate concentration at which the rate is half of its maximum. For orientation: kcat means the number of substrate molecules converted per active site and unit of time at saturation. As to “Ac-Asp-Glu-Met-Glu-Glu-Cys-Ala-Ser-His-Leu-Pro-Tyr-Lys-ε-(^3 H)Ac (XEMEECASHLPYX; N-acetyl; tritiated epsilon-acetyl) [SEQ ID NO:47]”, in the data set with NS3 protease + Pep4A, the peptide substrate cleaved turned out to be 20%. Besides, in the data set on HCV NS3 protease [2], the Km is 79 µM, the kcat was 0.00817 s⁻¹ and the “kcat /Km” value worked out at 103 M⁻¹ s⁻¹.
By kcat/Km is commonly meant the turnover number divided by the Michaelis constant. For the molecule “HCV NS3 protease + Pep4A (NS4A cofactor peptide) (Hepatitis C virus (isolate BK))”, the Km is 43 µM in data set [3], 320 µM in data set [4] and 380 µM in data set [5]. The kcat in data set [3] is 0.0233 s⁻¹; in data set [5] it was 0.25 s⁻¹. Further, the catalytic efficiency (kcat/Km) is 540 M⁻¹ s⁻¹ in data set [3] and 650 M⁻¹ s⁻¹ in data set [5].
As to `CC[C@H](NC(=O)[C@H](CCC(=O)O)NC(=O)[C@H](CCC(=O)O)NC(=O)[C@H](CCSC)NC(=O)[C@H](CCC(=O)O)NC(=O)[C@H](CC(=O)O)NC(C)=O)C(=O)N[C@@H](C)C(=O)N[C@@H](CO)C(=O)N[C@@H](Cc1c[nH]cn1)C(=O)N[C@@H](CC(C)C)C(=O)O` [Abu] (Ac-DEMEE[Abu]ASHL-OH), on HCV NS3 protease [1], the inhibition constant Ki is 175 µM.
On the same count and under the same terms, for Ac-DEMEETASHL [Thr] the value was 215 µM; for `C=CC[C@H](NC(=O)[C@H](CCC(=O)O)NC(=O)[C@H](CCC(=O)O)NC(=O)[C@H](CCSC)NC(=O)[C@H](CCC(=O)O)NC(=O)[C@H](CC(=O)O)NC(C)=O)C(=O)N[C@@H](C)C(=O)N[C@@H](CO)C(=O)N[C@@H](Cc1c[nH]cn1)C(=O)N[C@@H](CC(C)C)C(=O)O` [Alg] (Ac-DEMEE[AllylGly]ASHL-OH), 165 µM.
Consider “Ac-Asp-Glu-Met-Glu-Glu-Abu-.psi.-[COO]-Ala-Ser-His-Leu-Pro-Tyr-Lys(N^ ε -[^3 H]-CH3 CO)-NH2 [SEQ ID NO:44]”, for which, on NS3 protease (setting [6]), the Michaelis-Menten constant (Km) is 11 µM and the kcat was found to be 0.15 s⁻¹.
In the case of Ac-DEMEEVASHL [Val], affinity at HCV NS3 protease [1] was put at a Ki of 173 µM.
